Reference: patent EP4624471A1, “PKMYT1 INHIBITOR, PREPARATION METHOD THEREFOR, AND PHARMACEUTICAL COMPOSITION AND USE THEREOF” (Shanghai Qilu Pharmaceutical Research and Development …, priority 2022, dated 2024)

Molecular target: T1, PKMYT1 enzyme (Homo sapiens, UniProt Q99640)
T1 construct: purchased Thermo Scientific A33387
T1 sequence (Q99640 1-499): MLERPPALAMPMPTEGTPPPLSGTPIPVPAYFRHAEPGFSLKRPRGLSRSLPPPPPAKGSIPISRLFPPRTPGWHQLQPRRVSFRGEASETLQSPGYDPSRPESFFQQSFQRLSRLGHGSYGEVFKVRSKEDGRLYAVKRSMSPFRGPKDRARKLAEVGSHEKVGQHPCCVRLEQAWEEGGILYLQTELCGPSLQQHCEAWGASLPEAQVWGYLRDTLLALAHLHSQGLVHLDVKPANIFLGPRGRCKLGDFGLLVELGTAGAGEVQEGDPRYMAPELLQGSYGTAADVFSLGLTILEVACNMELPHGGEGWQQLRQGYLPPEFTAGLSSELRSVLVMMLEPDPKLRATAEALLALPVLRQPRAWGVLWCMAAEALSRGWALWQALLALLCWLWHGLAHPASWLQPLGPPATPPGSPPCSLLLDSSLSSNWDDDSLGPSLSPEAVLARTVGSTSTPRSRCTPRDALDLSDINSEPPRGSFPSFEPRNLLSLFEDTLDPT
Test: PKMYT1 enzyme inhibition activity, ADP-GLO method
Format: biochemical
Conditions: PKMYT1 enzyme 10 nM, ATP 5 µM, 37°C 90 minutes; read-out: ADP-GLO IC50

SMILES	IC50
Cc1cc(F)c(O)c(C)c1-n1c(N)c(C(N)=O)c2cc(Cl)c(C)nc21 (atropisomer, axis not shown) [Example 60.2]	1.88 nM
Cc1ccc(O)c(C)c1-n1c(N)c(C(N)=O)c2cnc(NCC(F)F)nc21 [Example 77]	20.2 nM
Cc1ccc(O)c(C)c1-n1c(N)c(C(N)=O)c2cnc(N)nc21 [Example 40, 2,6-Diamino-7-(3-hydroxy-2,6-dimethylphenyl)-7H-pyrrolo[2,3-d]pyrimidine-5-carboxamide]	23.6 nM
COc1cnc2c(c1)c(C(N)=O)c(N)n2-c1c(C)cc(F)c(O)c1C [Example 149]	12.6 nM
Cc1c(O)cc(F)c(C)c1-n1c(N)c(C(N)=O)c2cc(C(C)C)cnc21 (atropisomer, axis not shown) [Example 113.1]	93.1 nM
[2H]C([2H])([2H])c1c(O)c(F)cc(C)c1-n1c(N)c(C(N)=O)c2cc(C(F)(F)F)c(C)nc21 (racemic) [Example 195]	4.6 nM
Cc1ccc(O)c(C)c1-n1c(N)c(C(N)=O)c2cc3c(nc21)OC(F)(F)O3 [Example 178]	15.5 nM
Cc1cc(F)c(O)c(C)c1-n1c(N)c(C(N)=O)c2cc(C(C)C)cnc21 (racemic) [Example 170]	18.1 nM
Cc1cc(F)c(O)c(C)c1-n1c(N)c(C(N)=O)c2cc(C(F)(F)F)cnc21 (atropisomer, axis not shown) [Example 154.2]	5.1 nM
CCc1ncc2c(C(N)=O)c(N)n(-c3c(C)ccc(O)c3C)c2n1 [Example 8, 6-Amino-2-ethyl-7-(3-hydroxy-2,6-dimethylphenyl)-7H-pyrrolo[2,3-d]pyrimidine-5-carboxamide]	10.5 nM
C=Cc1ncc2c(C(N)=O)c(N)n(-c3c(C)ccc(O)c3C)c2n1 [Example 6, 6-Amino-7-(3-hydroxy-2,6-dimethylphenyl)-2-vinyl-7H-pyrrolo[2,3-d]pyrimidine-5-carboxamide]	10.1 nM
CCc1cc2c(C(N)=O)c(N)n(-c3c(C)cc(F)c(O)c3C)c2nc1C (single isomer, unassigned) [Example 143.1]	20 nM
Cc1c(O)cc(F)c(C)c1-n1c(N)c(C(N)=O)c2c(C)c3c(nc21)CCC3 [Example 182]	85.7 nM
Cc1ccc(O)c(C)c1-n1c(N)c(C(N)=O)c2c3cnccc3c(C)cc21 (racemic) [Example 189, 8-amino-7-(3-hydroxy-2,6-dimethylphenyl)-S-methyl-7H-pyrrolo[2,3-h]isoquinoline-9-carboxamide]	5 nM
CCc1ccc(O)c(C)c1-n1c(N)c(C(N)=O)c2cnc(C)nc21 [Example 68]	299 nM
Cc1nc(Cl)c2c(C(N)=O)c(N)n(-c3c(C)ccc(O)c3C)c2n1 [Example 28, 6-Amino-4-chloro-7-(3-hydroxy-2,6-dimethylphenyl)-2-methyl-7H-pyrrolo[2,3-d]pyrimidine-5-carboxamide]	13.8 nM
Cc1ccc(O)c(C)c1-n1c(N)c(C(N)=O)c2cnc(C3=CCOCC3)nc21 [Example 16, 6-Amino-2-(3,6-dihydro-2H-pyran-4-yl)-7-(3-hydroxy-2,6-dimethylphenyl)-7H-pyrrolo[2,3-d]pyrimidine-5-carboxamide]	11.7 nM
Cc1cc(F)c(O)c(C)c1-n1c(N)c(C(N)=O)c2cc(C3=CCOCC3)c(C)nc21 [Example 165]	33.4 nM
Cc1ccc(O)c(C)c1-n1c(N)c(C(N)=O)c2cnc(C3CCOCC3)nc21 [Example 18, 6-Amino-7-(3-hydroxy-2,6-dimethylphenyl)-2-(tetrahydro-2H-pyran-4-yl)-7H-pyrrolo[2,3-d]pyrimidine-5-carboxamide]	18.3 nM
Cc1c(O)cc(F)c(C)c1-n1c(N)c(C(N)=O)c2cc(F)cnc21 [Example 82]	5.43 nM
Cc1ccc(O)c(C)c1-n1c(N)c(C(N)=O)c2cnc(N3CCC(F)(F)CC3)nc21 [Example 37, 6-Amino-2-(4,4-difluoropiperidin-1-yl)-7-(3-hydroxy-2,6-dimethylphenyl)-7H-pyrrolo[2,3-d]pyrimidine-5-carboxamide]	3.09 nM

SMILES	IC50
Cc1ccc(O)c(C)c1-n1c(N)c(C(N)=O)c2c3c(c(C)nc21)OCC3 [Example 187]	43.5 nM
CCc1nc(C)nc2c1c(C(N)=O)c(N)n2-c1c(C)ccc(O)c1C (racemic) [Example 66]	22.5 nM
Cc1cc(F)c(O)c(C)c1-n1c(N)c(C(N)=O)c2cc(CC(C)C)c(C)nc21 (atropisomer, axis not shown) [Example 166.2]	3.78 nM
COc1ccc(CNc2ncc3c(C(N)=O)c(N)n(-c4c(C)ccc(O)c4C)c3n2)cc1 [Example 15, 6-Amino-7-(3-hydroxy-2,6-dimethylphenyl)-2-((4-methoxybenzyl)amino)-7H-pyrrolo[2,3-d]pyrimidine-5-carboxamide]	168 nM
Cc1nc(C2CC2)c2c(C(N)=O)c(N)n(-c3c(C)ccc(O)c3C)c2n1 (racemic) [Example 62]	16.9 nM
C=C(C)c1nc2c(cc1C)c(C(N)=O)c(N)n2-c1c(C)c(O)cc(F)c1C [Example 138]	27 nM
Cc1ccc(O)c(C)c1-n1c(N)c(C(N)=O)c2cnc(CCC3CC3)nc21 [Example 86]	5.47 nM
[2H]C([2H])([2H])c1cc(F)c(O)c(C([2H])([2H])[2H])c1-n1c(N)c(C(N)=O)c2cc(C(F)(F)F)c(C)nc21 [Example 193]	7.94 nM
Cc1ccc(O)c(C)c1-n1c(N)c(C(N)=O)c2cnc(C3CC3)nc21 [Example 41, 6-Amino-2-cyclopropyl-7-(3-hydroxy-2,6-dimethylphenyl)-7H-pyrrolo[2,3-d]pyrimidine-5-carboxamide]	11.2 nM
Cc1cc(F)c(O)c(C)c1-n1c(N)c(C(N)=O)c2cc(C(C)(C)O)cnc21 [Example 145]	24.3 nM
Cc1ncc2c(C(N)=O)c(N)n(-c3c(C)c(O)cc(F)c3C)c2c1F (racemic) [Example 71]	7.99 nM
Cc1cc2c(C(N)=O)c(N)n(-c3c(C)c(O)cc(F)c3C)c2nc1-c1ccccc1 [Example 137]	36.2 nM
Cc1ncc2c(C(N)=O)c(N)n(-c3c(C)cc(F)c(O)c3C)c2n1 [Example 65]	23.8 nM
Cc1cc(F)c(O)c(C)c1-n1c(N)c(C(N)=O)c2cc(C(F)(F)F)c(C)nc21 [Example 59, 2-Amino-1-(4-fluoro-3-hydroxy-2,6-dimethylphenyl)-6-methyl-5-(trifluoromethyl)-1H-pyrrolo[2,3-b]pyridine-3-carboxamide]	8.67 nM
CCN(CC)c1ncc2c(C(N)=O)c(N)n(-c3c(C)ccc(O)c3C)c2n1 [Example 17, 6-Amino-2-(diethylamino)-7-(3-hydroxy-2,6-dimethylphenyl)-7H-pyrrolo[2,3-d]pyrimidine-5-carboxamide]	71.5 nM
CCc1cnc2c(c1)c(C(N)=O)c(N)n2-c1c(C)cc(F)c(O)c1C [Example 140]	7.73 nM
[2H]C([2H])([2H])c1nc2c(cc1C(F)(F)F)c(C(N)=O)c(N)n2-c1c(C)cc(F)c(O)c1C (atropisomer, axis not shown) [Example 194.1]	5.3 nM
COc1nc2c(cc1C)c(C(N)=O)c(N)n2-c1c(C)cc(F)c(O)c1C [Example 167]	22 nM
COc1ncc2c(C(N)=O)c(N)n(-c3c(C)ccc(O)c3C)c2n1 [Example 46, 6-Amino-7-(3-hydroxy-2,6-dimethylphenyl)-2-methoxy-7H-pyrrolo[2,3-d]pyrimidine-5-carboxamide]	43.6 nM
CCc1ccc(O)c(CC)c1-n1c(N)c(C(N)=O)c2cnc(C)nc21 [Example 32, 6-Amino-7-(2,6-diethyl-3-hydroxyphenyl)-2-methyl-7H-pyrrolo[2,3-d]pyrimidine-5-carboxamide]	263 nM

Same assay, conditions: read-out: ADP-GLO IC50; PKMYT1 enzyme 10 nM, ATP 5 µM, 37°C 90 minutes

IC50	SMILES
6.58 nM	Cc1ccc(O)c(C)c1-n1c(N)c(C(N)=O)c2cc3c(ccn3C)nc21 [Example 206]
2.22 nM	Cc1ccc(O)c(C)c1-n1c(N)c(C(N)=O)c2cc3c(nc21)CCO3 (atropisomer, axis not shown) [Example 190.2]
